Assay results from patent US10092584B2 (Achillion Pharmaceuticals, Inc., priority 2015, dated 2018).
Structures can show the parent of a compound that is named as a salt. Where two headings read alike, the source gives them in different places.

Target: T1, Human Factor D (Homo sapiens, UniProt P00746)
T1 construct: purified from human serum; purchased Complement Technology, Inc; host or cells: human serum
Test: Human Factor D assay (Example 8)
Type: biochemical
Method: Human Factor D (purified from human serum, Complement Technology, Inc.) at 80 nM final concentration was incubated with test compound at various concentrations for 5 minutes at room temperature in 50 mM Tris, 1M NaCl, pH 7.5. A synthetic substrate Z-L-Lys-SBzl and DTNB (Ellman's reagent) are added to final concentrations of 100 μM each. […] IC50 values are calculated by nonlinear regression of complement Factor D reaction rates as a function of test compound concentration.

[1] = Table 3, Human Factor D 80 nM, substrate Z-L-Lys-SBzl, read-out: IC50 (Stars)
[2] = Table 1, Human Factor D 80 nM, substrate Z-L-Lys-SBzl, read-out: IC50
[3] = Table 2, Human Factor D 80 nM, substrate Z-L-Lys-SBzl, read-out: IC50

T1 sequence (P00746 26-253): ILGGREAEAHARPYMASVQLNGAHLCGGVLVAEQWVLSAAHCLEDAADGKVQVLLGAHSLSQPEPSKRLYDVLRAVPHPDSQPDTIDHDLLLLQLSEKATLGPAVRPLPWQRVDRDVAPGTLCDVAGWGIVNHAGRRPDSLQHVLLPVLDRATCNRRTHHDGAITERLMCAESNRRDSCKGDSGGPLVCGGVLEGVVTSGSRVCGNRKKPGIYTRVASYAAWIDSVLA

Row | Compound | IC50 [2] | further results
1 | CC(=O)c1nc(CC(=O)N2C[C@H](F)C[C@H]2C(=O)Nc2cccc(-c3ccccc3Cl)c2F)n2ccccc12 [Compound 372, (2S,4R)-1-(2-(1-Acetylimidazo[1,5-a]pyridin-3-yl)acetyl)-N-(2′-chloro-2-fluoro-[1,1′-biphenyl]-3-yl)-4-fluoropyrrolidine-2-carboxamide] |  | IC50 [1]: < 1000 nM
2 | NC(=O)c1nn(CC(=O)N2C[C@H](F)C[C@H]2C(=O)Nc2cccc(-c3cc(F)cc(F)c3Cl)c2F)c2ccccc12 [Compound 94, 1-(2-((2S,4R)-2-(2′-chloro-2,3′,5′-trifluorobiphenyl-3-ylcarbamoyl)-4-fluoropyrrolidin-1-yl)-2-oxoethyl)-1H-indazole-3-carboxamide] |  | IC50: < 1000 nM
3 | NC(=O)n1cc(NC(=O)C2=C(C(=O)NCc3cccc(Cl)c3F)CCC2)c2ccccc21 [Compound 31, N1-(1-carbamoyl-1H-indol-3-yl)-N2-(3-chloro-2-fluorobenzyl)cyclo-pent-1-ene-1,2-dicarboxamide] | > 10000 nM | 
4 | NC(=O)c1nn(CC(=O)N2[C@@H]3C[C@@H]3C[C@H]2C(=O)Nc2cccc(-c3ccccc3Cl)c2F)cc1Br [Compound 77, (1R,3S,5R)-2-(2-(4-Bromo-3-carbamoyl-1H-pyrazol-1-yl)acetyl)-N-(2′-chloro-2-fluoro-[1,1′-biphenyl]-3-yl)-2-azabicyclo[3.1.0]hexane-3-carboxamide] | < 1000 nM | 
5 | CC(=O)c1cn(CC(=O)N2C[C@H](F)C[C@H]2C(=O)Nc2cccc(Br)n2)c2ccc(C3(NC(=O)c4ncccn4)CC3)cc12 [Compound 119, N-(1-(3-acetyl-1-(2-((2S,4R)-2-(6-bromopyridin-2-ylcarbamoyl)-4-fluoropyrrolidin-1-yl)-2-oxoethyl)-1H-indol-5-yl)cyclopropyl) pyrimidine-2-carboxamide] |  | IC50: < 1000 nM
6 | CC(=O)c1nn(CC(=O)N2C[C@H](F)C[C@H]2C(=O)Nc2cccc(-c3ccc4c(c3)CNCC4)c2F)c2ccccc12 [Compound 451, (2S,4R)-1-(2-(3-Acetyl-1H-indazol-1-yl)acetyl)-4-fluoro-N-(2-fluoro-3-(1,2,3,4-tetrahydroisoquinolin-7-yl)phenyl)pyrrolidine-2-carboxamide] |  | IC50 [1]: < 1000 nM
7 | COC(=O)/C=C/c1cccc(NC(=O)[C@@H]2C[C@@H](F)CN2C(=O)Cn2nc(C(N)=O)c3ccccc32)c1F [Compound 389, (E)-methyl 3-(3-((2S,4R)-1-(2-(3-carbamoyl-1H-indazol-1-yl)acetyl)-4-fluoropyrrolidine-2-carboxamido)-2-fluorophenyl) acrylate] |  | IC50 [1]: 1000 to 10000 nM
8 | CC(=O)Nc1cccc2c1c(C(C)=O)cn2CC(=O)N1C[C@H](F)C[C@H]1C(=O)Nc1cccc(-c2ccccc2Cl)c1F [Compound 91, (2S,4R)-1-(2-(4-acetamido-3-acetyl-1H-indol-1-yl)acetyl)-N-(2′-chloro-2-fluorobiphenyl-3-yl)-4-fluoropyrrolidine-2-carboxamide] | > 10000 nM | 
9 | CC(=O)c1cn(CC(=O)N2C[C@H](F)C[C@H]2C(=O)N2Cc3ccccc3C2)c2ccccc12 [Compound 33, 2-(3-acetyl-1H-indol-1-yl)-1-((2S,4R)-4-fluoro-2-(isoindoline-2-carbonyl)pyrrolidin-1-yl)ethanone] | > 10000 nM | 
10 | COC(=O)c1cc2c(s1)c(C(N)=O)nn2CC(=O)N1C[C@H](F)C[C@H]1C(=O)Nc1cccc(-c2ccccc2Cl)c1F [Compound 129, methyl 3-carbamoyl-1-(2-((2S,4R)-2-(2′-chloro-2-fluorobiphenyl-3-ylcarbamoyl)-4-fluoropyrrolidin-1-yl)-2-oxoethyl)-1H-thieno[3,2-c]pyrazole-5-carboxylate] |  | IC50 [3]: < 1000 nM
11 | N#Cc1cn(CC(=O)N2C[C@H](F)C[C@H]2C(=O)NCc2cccc(Cl)c2F)c2ccccc12 [Compound 36, (2S,4R)-N-(3-chloro-2-fluorobenzyl)-1-(2-(3-cyano-1H-indol-1-yl)acetyl)-4-fluoropyrrolidine-2-carboxamide] | < 1000 nM | 
12 | CC(=O)c1cn(CC(=O)N2C[C@H](F)C[C@H]2C(=O)Nc2cccc(Br)n2)c2ccc(C3(NC(=O)OC(C)(C)C)CC3)cc12 [Compound 123, tert-butyl 1-(3-acetyl-1-(2-((2S,4R)-2-(6-bromopyridin-2-ylcarbamoyl)-4-fluoropyrrolidin-1-yl)-2-oxoethyl)-1H-indol-5-yl)cyclopropyl-carbamate] |  | IC50: < 1000 nM
13 | CC(=O)c1cn(CC(=O)N2C[C@H](F)C[C@H]2C(=O)Nc2cccc(-c3cc(F)cc(F)c3Cl)c2F)c2ccccc12 [Compound 95, (2S,4R)-1-(2-(3-acetyl-1H-indol-1-yl)acetyl)-N-(2′-chloro-2,3′,5′-trifluorobiphenyl-3-yl)-4-fluoropyrrolidine-2-carboxamide] |  | IC50: < 1000 nM
14 | CC(=O)c1cn(CC(=O)N2[C@H](C(=O)NCc3cccc(Cl)c3F)C[C@@H]3CCCC[C@@H]32)c2ccccc12 [Compound 1, (2S,3aS,7aS)-1-(2-(3-acetyl-1H-indol-1-yl)acetyl)-N-(3-chloro-2-fluorobenzyl)octa-hydro-1H-indole-2-carboxamide] |  | IC50: < 1000 nM
15 | CC(=O)c1cn(CC(=O)N2C[C@H](F)C[C@H]2Cn2cc(-c3ccc(F)cc3)nn2)c2ccccc12 [Compound 27, 2-(3-acetyl-1H-indol-1-yl)-1-((2S,4R)-4-fluoro-2-((4-(4-fluorophenyl)-1H-1,2,3-triazol-1-yl)methyl)pyrrolidin-1-yl)ethanone] | > 10000 nM | 
16 | NC(=O)c1nn(CC(=O)N2C[C@H](F)C[C@H]2C(=O)Nc2cccc(-c3ccccc3Cl)c2F)c2cc(C(=O)O)sc12 [Compound 326, 3-carbamoyl-1-(2-((2S,4R)-2-((2′-chloro-2-fluoro-[1,1′-biphenyl]-3-yl)carbamoyl)-4-fluoropyrrolidin-1-yl)-2-oxoethyl)-1H-thieno[3,2-c]pyrazole-5-carboxylic acid] |  | IC50 [1]: < 1000 nM
17 | CC(=O)n1cc(NC(=O)[C@H]2CC(F)(F)CN2C(=O)NCc2cccc(Cl)c2F)c2ccccc21 [Compound 8, (R)-N2-(1-acetyl-1H-indol-3-yl)-N1-(3-chloro-2-fluorobenzyl)-4,4-difluoropyrrolidine-1,2-dicarboxamide] | > 10000 nM | 
18 | C[C@@]12C[C@@H](C(=O)Nc3cccc(-c4ccc5nc[nH]c5c4Cl)c3F)N(C(=O)Cn3nc(C(N)=O)c4ccccc43)[C@@H]1C2 [Compound 453, 1-(2-((1R,3S,5R)-3-((3-(7-chloro-1H-benzo[d]imidazol-6-yl)-2-fluorophenyl)car-bamoyl)-5-methyl-2-azabicyclo[3.1.0]hexan-2-yl)-2-oxoethyl)-1H-indazole-3-carboxamide] |  | IC50 [1]: < 1000 nM
19 | O=C(NCc1cccc(Cl)c1F)[C@@H]1C[C@@H](F)CN1C(=O)Cn1nc(-c2cnc[nH]2)c2ccncc21 [Compound 75, (2S,4R)-1-(2-(3-(1H-imidazol-5-yl)-1H-pyrazolo[3,4-c]pyridin-1-yl)acetyl)-N-(3-chloro-2-fluorobenzyl)-4-fluoropyrrolidine-2-carboxamide] | < 1000 nM | 
20 | CC(=O)n1cc(NC(=O)[C@@H]2C[C@H](F)CN2C(=O)NCc2ccccc2)c2ccccc21 [Compound 5, (2S,4S)-N2-(1-acetyl-1H-indol-3-yl)-N1-benzyl-4-fluoropyrrolidine-1,2-dicarboxamide] | > 10000 nM | 
21 | CC(=O)c1cn(CC(=O)N2C[C@H](F)C[C@H]2c2nc3cc(Cl)ccc3[nH]2)c2ccccc12 [Compound 15] | > 10000 nM | 
22 | CC(=O)c1nn(CC(=O)N2C[C@H](F)C[C@H]2C(=O)NCC23CC4CC(CC(C4)C2)C3)c2ccccc12 [Compound 397, (2S,4R)-1-(2-(3-acetyl-1H-indazol-1-yl)acetyl)-N-(((3S,5S,7S)-adamantan-1-yl)methyl)-4-fluoropyrrolidine-2-carboxamide] |  | IC50 [1]: < 1000 nM
23 | O=C(NCc1cccc(Cl)c1F)[C@@H]1C[C@@H](F)CN1C(=O)Cn1nc(I)c2ccncc21 [Compound 52, (2S,4R)-N-(3-chloro-2-fluorobenzyl)-4-fluoro-1-(2-(3-iodo-1H-pyrazolo[3,4-c]pyridin-1-yl)acetyl)pyrrolidine-2-carboxamide] | < 1000 nM | 
24 | NCC(=O)c1ccc(Cl)c(-c2cccc(NC(=O)[C@@H]3C[C@@H](F)CN3C(=O)Cn3nc(C(N)=O)c4ccccc43)c2F)c1 [Compound 140, 1-(2-((2S,4R)-2-((2′-Chloro-2-fluoro-5′-glycyl-[1,1′-biphenyl]-3-yl)carbamoyl)-4-fluoropyrrolidin-1-yl)-2-oxoethyl)-1H-indazole-3-carboxamide hydrochloride] |  | IC50 [3]: < 1000 nM
25 | O=C(NCc1cccc(Cl)c1F)[C@@H]1C[C@@H](F)CN1C(=O)Cn1nc(-c2cn[nH]c2)c2ccncc21 [Compound 73, (2S,4R)-1-(2-(3-(1H-pyrazol-4-yl)-1H-pyrazolo[3,4-c]pyridin-1-yl)acetyl)-N-(3-chloro-2-fluorobenzyl)-4-fluoropyrrolidine-2-carboxamide] | < 1000 nM | 
26 | CC(=O)n1cc(NC(=O)Nc2cn(C(C)=O)c3ccccc23)c2ccccc21 [Compound 20, 1,3-bis(1-acetyl-1H-indol-3-yl)urea] | > 10000 nM | 
27 | CC(=O)c1cc(CC(=O)N2C[C@H](F)C[C@H]2C(=O)Nc2cccc(Br)n2)n2ccccc12 [Compound 314, (2S,4R)-1-(2-(1-Acetylindolizin-3-yl)acetyl)-N-(6-bromopyridin-2-yl)-4-fluoropyrrolidine-2-carboxamide] |  | IC50 [1]: < 1000 nM
28 | CCOC(=O)CC(=O)N1CCc2c(n(CC(=O)N3C[C@H](F)C[C@H]3C(=O)NCc3cccc(Cl)c3F)c3ccccc23)C1 [Compound 70, ethyl 3-(9-(2-((2S,4R)-2-(3-chloro-2-fluorobenzylcarbamoyl)-4-fluoropyrrolidin-1-yl)-2-oxoethyl)-3,4-dihydro-1H-pyrido[3,4-b]indol-2(9H)-yl)-3-oxopropanoate] | > 10000 nM | 
